{
  "source": "patent US7737182B2",
  "about": "“Pharmaceuticals for xerosis” (Taisho Pharmaceutical Co., Ltd., priority 2001, dated 2010)",
  "key": {"[1]": {"test_system": "NC/Nga mice manifesting atopic dermatitis", "test": "Spontaneous itch-evoked scratching behavior of NC mice (Test Example 1)", "format": "in vivo", "details": "for Inhibition rate (%) (percent itch suppression): 0.2 ml/mouse on dorsal skin, 24-hr scratching counts before vs after; for Efficacy (significance, paired t-test): scratching counts before vs after application", "method": "About 20-week old NC/Nga mice each weighing about 30 g and manifesting atopic dermatitis were purchased from SLC and subjected to the following experiment. A magnet was buried in both hind paws of each mouse and by detecting its magnetism, the movement of the paws was measured with an itch measuring system (product of Neuroscience; when the mouse makes an action, the magnets move accordingly and a current flows through the coil; the moving magnets cause a change in the current, which is detected, measured and analyzed). Among the scratching actions, those lasting 1.5 seconds or longer were considered itch-evoked and their number was counted continuously. […] The subsequent 24-hr itch-evoked scratching behavior was measured and the number of itch-evoked scratchings after drug administration was compared with the initial count. The experimental data was processed to calculate the percent itch suppression on the basis of the total 24-hr itch-evoked scratching counts before and after drug application. For significance testing, the itch-evoked scratching counts that were obtained before and after drug application from individual animals in each group treated with a specific concentration of drug were processed by a paired t-test. Percent itch suppression (%)=(itch-evoked scratching count before drug application−itch-evoked scratching count after drug application)×100/itch-evoked scratching count before drug application (Results)"}, "[2]": {"test_system": "NC mice induced to manifest dermatitis", "test": "Dermatitis score in dermatitis manifesting NC mouse models (Test Example 2)", "format": "in vivo", "details": "0.1% in 100% ethanol, 200 μl on dorsal back, seven times a week for 4 weeks", "method": "By suitably modifying a method known to the skilled artisan (Jpn. J. Pharmacol. 76, 175-183 (1998) Jun Hiroi, et al. Effects of Tacrolimus Hydrate (FK-506) Ointment on Spontaneous Dermatitis in NC/Nga Mice), the following test was conducted in order to confirm the antipruritic effect of compounds of the invention.\nAnimals: Four-week old SPF NC mice (male) were purchased from Japan SLC; right after their arrival, the SPF NC mice were kept together with dermatitis manifesting male NC mice (older than 20 weeks) for 2 weeks under the following conditions so as to induce itch-evoked scratching behavior. […]\nDrug administration: To the dorsal backs of the 20-wk NC mice that were induced to manifest dermatitis as the result of cohabitation with the spontaneous dermatitis manifesting NC mice, 100% ethanol, compound No. 7 (0.01%) dissolved in 100% ethanol or tacrolimus (0.1%) dissolved in 100% ethanol was applied from an Eppendorf pipette in 200-μl doses seven times a week for a period of 4 weeks. […] Dermatitis score: Dermatitic symptoms were observed and measured once a week. […]"}, "BALB/c male mice [3]": {"test_system": "BALB/c male mice", "test": "Mouse skin's barrier function, treatment test, TEWL (Test Example 5)", "format": "in vivo", "details": "barrier destroyed with acetone/diethyl ether; 0.01% in ethanol, 100 μL, once a day for 2 days", "method": "Six-week-old BALB/c male mice in groups of eight were shaven in a rostral dorsolateral area of 4 cm^2 (2 cm×2 cm) with electric clippers and the shaven area was covered for 60 seconds with an absorbent cotton (2 cm×2 cm) impregnated with a 1:1 liquid mixture of acetone and diethyl ether. This treatment for destroying the skin's barrier function was performed for 3 consecutive days on once-a-day basis. Starting on the day next to completion of the treatment for barrier destruction at day 3, a solvent (ethanol, 100 μL) or a drug dissolved in the solvent (compound No. 7, PGD2, PGF2α, or PGE1, all being at 0.01% in an amount of 100 μL) was applied to the barrier destroyed site for 2 days on once-a-day basis. On the day next to the second application of the solvent or drug, the transepidermal water loss (TEWL) at the same site was measured with Tewameter (TM210 of Courage & Khazawa, Germany) to evaluate the drug's action."}, "BALB/c male mice [4]": {"test_system": "BALB/c male mice", "test": "Mouse skin's barrier function, preventive test, TEWL (Test Example 6)", "format": "in vivo", "details": "cohabitation with dermatitic NC/Nga mice; 0.01% in ethanol, 100 μL, once a day for 7 days", "method": "Six-week-old BALB/c male mice in groups of six were shaven in a rostral dorsolateral area of 4 cm^2 (2 cm×2 cm) with electric clippers and kept in the same cage as NC/Nga mice that had developed dermatitis. From the day next to the start of cohabitation, a solvent (ethanol, 100 μL) or a drug dissolved in the solvent (compound No. 7, PGD2, PGF2α, or PGE1, all being at 0.01% in an amount of 100 μL) was applied to the shaven site for 7 days on once-a-day basis.\nOn the day next to the seventh application of the solvent or drug, the transepidermal water loss (TEWL) at the same site was measured with Tewameter (TM210 of Courage & Khazawa, Germany) to evaluate the drug's action, with the solvent-applied group being used as the control group."}, "prostaglandin D receptor": {"target": "T1, prostaglandin D receptor (Homo sapiens, UniProt Q13258)", "T1 construct": "separate the supernatant (PRP, or platelet-rich plasma); endogenous in cells; host or cells: human platelets (platelet-rich plasma from healthy male donors)", "T1 sequence (Q13258 1-359)": "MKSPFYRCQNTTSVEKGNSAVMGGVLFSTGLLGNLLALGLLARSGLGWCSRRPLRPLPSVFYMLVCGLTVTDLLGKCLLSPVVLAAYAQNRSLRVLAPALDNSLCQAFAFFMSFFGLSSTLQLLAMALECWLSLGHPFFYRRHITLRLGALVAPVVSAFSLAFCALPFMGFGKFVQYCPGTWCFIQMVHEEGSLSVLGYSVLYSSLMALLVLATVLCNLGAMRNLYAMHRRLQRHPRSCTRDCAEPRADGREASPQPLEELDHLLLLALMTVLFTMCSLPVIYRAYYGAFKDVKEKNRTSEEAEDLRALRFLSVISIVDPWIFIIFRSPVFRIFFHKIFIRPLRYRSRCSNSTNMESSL", "test": "Antagonism by BW A868C of the suppression of ADP-induced human platelet aggregation", "format": "cell-based", "details": "human PRP, ADP 3 μmol/L", "method": "The prostaglandin D receptor selective antagonist used in the test was ((+/−)-3-benzyl-5-(6-carboxyhexyl)-1-(2-cyclohexyl-2-hydroxyethylamino)-hydantoin) (hereunder designated BW A868C) (Sigma-Aldrich Japan K.K.)\nBW A868C was diluted with ethanol to final concentrations of 0.03 μmol/L, 0.1 μmol/L, 0.3 μmol/L, 1 μmol/L, 3 μmol/L and 10 μmol/L.\nCompound No. 7 and PGD2 were diluted with ethanol to 287 nmol/L and 300 nmol/L, respectively, for subsequent use.\nBlood was taken from the cubital veins of human healthy males and sampled into a tube containing 3.13% sodium citrate. The blood sample was centrifuged at 1,000 rpm for 10 minutes at 20° C. to separate the supernatant (PRP, or platelet-rich plasma) and the residue was further centrifuged at 3,000 rpm for 10 minutes at 20° C. to separate the supernatant (PPP, or platelet-poor plasma). The platelet count of PRP was appropriately diluted with PPP to 30×10^4 platelets/μL for subsequent use.\nPlatelet aggregation was measured with a platelet aggregation measuring instrument (PAM-8C; MC MEDICAL Co., LTD.) by the Born method (Nature, vol. 194, p. 927, 1962). A portion (273 μL) of PRP (for the BW A868C groups, 1 μL of BW A868C was added at varying concentrations) was preincubated at 37° C. for 3 minutes with stirring at 1,000 rpm. After the preincubation, 1 μL of ethanol or a test substance (compound No. 7: final concentration at 95.7 nmol/L; PGD2: final concentration at 1000 nmol/L) was added and the mixture was incubated at 37° C. for 3 minutes with stirring at 1000 rpm. After the incubation, 25 μL of ADP (final concentration at 3 μmol/L) was added to induce platelet aggregation and a maximum percent aggregation for 5 minutes was measured."}, "[5]": {"details": "concentration 0.00001% in 100% ethanol"}},
  "data": [
    {"compound": "O=C(O)CCCCSC[C@@H]1[C@@H](C#C[C@@H](O)C2CCCCC2)[C@H](O)C[C@H]1Cl", "note": "[Compound No. 32]", "values": [
      {"measurement": "Inhibition rate (%) (percent itch suppression)", "setting": "[1]; [5]", "result": 41.76, "unit": "%"},
      {"measurement": "Efficacy (significance, paired t-test)", "setting": "[1]; concentration 0.00001%", "result": "** (**: P < 0.01)"}
    ]},
    {"compound": "C=CC[C@@H]1/C=C(\\C)C[C@H](C)C[C@H](OC)[C@H]2O[C@@](O)(C(=O)C(=O)N3CCCC[C@H]3C(=O)O[C@H](/C(C)=C/[C@@H]3CC[C@@H](O)[C@H](OC)C3)[C@H](C)[C@@H](O)CC1=O)[C@H](C)C[C@@H]2OC", "note": "[tacrolimus, reference compound]", "values": [
      {"measurement": "dermatitis score suppressing action compared to the vehicle group", "setting": "[2]", "result": "significant dermatitis score suppressing action"}
    ]},
    {"compound": "O=C(O)C#CCCCC[C@@H]1[C@@H](C#C[C@@H](O)C2CCCCC2)[C@H](O)C[C@H]1Cl", "note": "[Compound No. 15]", "values": [
      {"measurement": "Inhibition rate (%) (percent itch suppression)", "setting": "[1]; concentration 0.000001% in 100% ethanol", "result": 34.61, "unit": "%"},
      {"measurement": "Efficacy (significance, paired t-test)", "setting": "[1]; concentration 0.000001%", "result": "* (*: P < 0.05)"}
    ]},
    {"compound": "CCCCC[C@H](O)/C=C/[C@H]1[C@H](O)CC(=O)[C@@H]1CCCCCCC(=O)O", "note": "[PGE1]", "values": [
      {"measurement": "transepidermal water loss (TEWL) compared to the solvent-applied control group", "setting": "BALB/c male mice [3]", "result": "no significant difference from the control group"},
      {"measurement": "transepidermal water loss (TEWL) compared to the control group", "setting": "BALB/c male mice [4]", "result": "significant decrease in TEWL"}
    ]},
    {"compound": "CCCCC[C@H](O)/C=C/[C@@H]1[C@@H](C/C=C\\CCCC(=O)O)[C@@H](O)C[C@H]1O", "note": "[PGF2α]", "values": [
      {"measurement": "transepidermal water loss (TEWL) compared to the solvent-applied control group", "setting": "BALB/c male mice [3]", "result": "no significant difference from the control group"},
      {"measurement": "transepidermal water loss (TEWL) compared to the control group", "setting": "BALB/c male mice [4]", "result": "no significant difference from the control group"}
    ]},
    {"compound": "O=C(O)CCCCCCC1C(=O)N(Cc2ccccc2)C(=O)N1NCC(O)C1CCCCC1", "note": "(racemic) [BW A868C, ((+/−)-3-benzyl-5-(6-carboxyhexyl)-1-(2-cyclohexyl-2-hydroxyethylamino)-hydantoin)]", "values": [
      {"measurement": "concentration of BW A868C with significant antagonism of the platelet aggregation suppressing action of PGD2", "setting": "prostaglandin D receptor; PGD2 at 1000 nmol/L", "result": "≥ 0.3", "unit": "µmol/L"},
      {"measurement": "concentration of BW A868C with significant antagonism of the platelet aggregation suppressing action of compound No. 7", "setting": "prostaglandin D receptor; compound No. 7 at 95.7 nmol/L", "result": "≥ 0.1", "unit": "µmol/L"}
    ]},
    {"compound": "COC(=O)CSCCCC[C@@H]1[C@@H](C#C[C@@H](O)C2CCCCC2)[C@H](O)C[C@H]1Cl", "note": "[Compound No. 6]", "values": [
      {"measurement": "Inhibition rate (%) (percent itch suppression)", "setting": "[1]; concentration 0.0001% in 100% ethanol", "result": 32.26, "unit": "%"},
      {"measurement": "Efficacy (significance, paired t-test)", "setting": "[1]; concentration 0.0001%", "result": "* (*: P < 0.05)"}
    ]},
    {"compound": "O=C(O)CSCCSC[C@@H]1[C@@H](C#C[C@@H](O)C2CCCCC2)[C@H](O)C[C@H]1Cl", "note": "[Compound No. 25]", "values": [
      {"measurement": "Inhibition rate (%) (percent itch suppression)", "setting": "[1]; [5]", "result": 21.51, "unit": "%"},
      {"measurement": "Efficacy (significance, paired t-test)", "setting": "[1]; concentration 0.00001%", "result": "* (*: P < 0.05)"}
    ]}
  ]
}
